Data set [1] can be described thus: DRUGMATRIX: Tumor Necrosis Factor (TNF), Non-Selective radioligand binding (ligand: [125I] TNF-alpha). The conditions noted are these: u-937; Not Active = under 50% inhibition at 10 µM. The data set is classed as cell membranes, Membrane.
Data set [2] in a line: DRUGMATRIX: Calcium Channel Type L, Benzothiazepine radioligand binding (ligand: [3H] Diltiazem). It counts as cell membranes, Rattus norvegicus, Wistar, Brain, Membrane. The conditions noted are these: Not Active = under 50% inhibition at 10 µM.
Data set [3] addresses T1, Cholecystokinin receptor type A (Homo sapiens, UniProt P32238).
T1 sequence (P32238 whole entry): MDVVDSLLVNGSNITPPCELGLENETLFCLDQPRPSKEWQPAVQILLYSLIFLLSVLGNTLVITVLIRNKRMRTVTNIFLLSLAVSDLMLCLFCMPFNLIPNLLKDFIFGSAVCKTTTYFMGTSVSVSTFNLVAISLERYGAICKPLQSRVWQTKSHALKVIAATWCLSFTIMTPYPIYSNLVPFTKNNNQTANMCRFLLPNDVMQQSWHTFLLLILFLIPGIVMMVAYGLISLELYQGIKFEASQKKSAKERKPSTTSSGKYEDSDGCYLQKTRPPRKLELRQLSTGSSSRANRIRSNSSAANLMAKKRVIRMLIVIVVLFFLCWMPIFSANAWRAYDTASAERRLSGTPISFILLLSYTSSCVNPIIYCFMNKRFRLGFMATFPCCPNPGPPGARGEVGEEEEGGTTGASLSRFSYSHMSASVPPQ
It counts as cell membranes, Membrane. The note with it: 1321-n1.

The target of data set [4] is T2, Neuropeptide Y receptor type 2 (Homo sapiens, UniProt P49146). Also: in other assays of this panel Not Active means under 50% inhibition at 10 µM.
T2 sequence (P49146 whole entry): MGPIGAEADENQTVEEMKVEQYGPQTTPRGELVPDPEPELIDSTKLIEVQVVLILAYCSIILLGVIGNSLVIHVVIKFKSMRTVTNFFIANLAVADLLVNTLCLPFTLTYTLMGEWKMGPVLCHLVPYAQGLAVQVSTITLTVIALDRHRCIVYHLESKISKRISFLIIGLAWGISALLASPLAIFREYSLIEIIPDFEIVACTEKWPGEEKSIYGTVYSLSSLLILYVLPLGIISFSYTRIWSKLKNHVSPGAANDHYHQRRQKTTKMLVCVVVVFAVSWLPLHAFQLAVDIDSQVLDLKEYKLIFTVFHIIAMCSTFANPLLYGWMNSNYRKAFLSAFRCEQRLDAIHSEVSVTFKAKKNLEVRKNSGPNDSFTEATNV
The data set is classed as cell membranes, Membrane. The note with it: kan-ts.

Another data set concerns the target T3, Leukotriene C4 synthase (Cavia porcellus, UniProt A6XA80).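 Also: enzyme inhibition assay of leukotriene C4 synthase, using LTA4 as the substrate; in other assays of this panel Not Active means under 50% inhibition at 10 µM.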
T3 sequence (A6XA80 whole entry): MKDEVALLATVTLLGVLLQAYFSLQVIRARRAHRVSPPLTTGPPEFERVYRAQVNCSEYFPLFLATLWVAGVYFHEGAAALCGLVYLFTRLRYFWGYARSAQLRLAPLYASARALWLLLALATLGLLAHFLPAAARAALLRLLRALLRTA
As to the kind of experiment: biochemical. The data set is classed as tissue-based, Lung.

Data set [5] has as its target Voltage-gated inwardly rectifying potassium channel KCNH2 (Homo sapiens, UniProt Q12809). The conditions noted are these: hek293. Also: in other assays of this panel Not Active means under 50% inhibition at 10 µM.
Data set [6] deals with T4, Cysteinyl leukotriene receptor 1 (Homo sapiens, UniProt Q9Y271).
T4 sequence (Q9Y271 whole entry): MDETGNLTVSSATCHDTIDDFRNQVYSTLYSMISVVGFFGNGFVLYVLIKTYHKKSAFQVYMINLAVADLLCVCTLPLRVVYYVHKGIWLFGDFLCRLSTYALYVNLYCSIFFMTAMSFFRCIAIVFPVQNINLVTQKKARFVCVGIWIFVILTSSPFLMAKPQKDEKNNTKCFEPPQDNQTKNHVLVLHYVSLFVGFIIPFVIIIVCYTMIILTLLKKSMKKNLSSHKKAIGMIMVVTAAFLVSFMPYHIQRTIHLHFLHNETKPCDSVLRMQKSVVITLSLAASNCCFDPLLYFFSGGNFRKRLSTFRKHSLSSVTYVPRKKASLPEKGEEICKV
It counts as cell membranes, CHO-K1, Membrane. The conditions noted are these: cho-k1.

The next data set deals with T5, B2 bradykinin receptor (Homo sapiens, UniProt P30411).
T5 sequence (P30411 whole entry): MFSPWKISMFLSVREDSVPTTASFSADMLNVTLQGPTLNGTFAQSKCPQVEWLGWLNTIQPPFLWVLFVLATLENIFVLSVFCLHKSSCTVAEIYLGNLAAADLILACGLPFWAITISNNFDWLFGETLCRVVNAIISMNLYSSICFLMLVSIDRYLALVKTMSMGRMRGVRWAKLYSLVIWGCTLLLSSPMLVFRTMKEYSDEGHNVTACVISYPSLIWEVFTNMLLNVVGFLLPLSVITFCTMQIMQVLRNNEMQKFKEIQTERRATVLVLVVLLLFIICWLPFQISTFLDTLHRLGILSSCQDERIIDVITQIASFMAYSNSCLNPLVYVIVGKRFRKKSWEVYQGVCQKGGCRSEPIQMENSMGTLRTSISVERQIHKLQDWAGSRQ
It counts as cell membranes, Membrane. The conditions noted are these: chem-1.

The record followed here is ChEMBL document CHEMBL1909046, “DrugMatrix in vitro pharmacology data”.

Voltage-gated inwardly rectifying potassium channel KCNH2, sequence (Q12809 whole entry): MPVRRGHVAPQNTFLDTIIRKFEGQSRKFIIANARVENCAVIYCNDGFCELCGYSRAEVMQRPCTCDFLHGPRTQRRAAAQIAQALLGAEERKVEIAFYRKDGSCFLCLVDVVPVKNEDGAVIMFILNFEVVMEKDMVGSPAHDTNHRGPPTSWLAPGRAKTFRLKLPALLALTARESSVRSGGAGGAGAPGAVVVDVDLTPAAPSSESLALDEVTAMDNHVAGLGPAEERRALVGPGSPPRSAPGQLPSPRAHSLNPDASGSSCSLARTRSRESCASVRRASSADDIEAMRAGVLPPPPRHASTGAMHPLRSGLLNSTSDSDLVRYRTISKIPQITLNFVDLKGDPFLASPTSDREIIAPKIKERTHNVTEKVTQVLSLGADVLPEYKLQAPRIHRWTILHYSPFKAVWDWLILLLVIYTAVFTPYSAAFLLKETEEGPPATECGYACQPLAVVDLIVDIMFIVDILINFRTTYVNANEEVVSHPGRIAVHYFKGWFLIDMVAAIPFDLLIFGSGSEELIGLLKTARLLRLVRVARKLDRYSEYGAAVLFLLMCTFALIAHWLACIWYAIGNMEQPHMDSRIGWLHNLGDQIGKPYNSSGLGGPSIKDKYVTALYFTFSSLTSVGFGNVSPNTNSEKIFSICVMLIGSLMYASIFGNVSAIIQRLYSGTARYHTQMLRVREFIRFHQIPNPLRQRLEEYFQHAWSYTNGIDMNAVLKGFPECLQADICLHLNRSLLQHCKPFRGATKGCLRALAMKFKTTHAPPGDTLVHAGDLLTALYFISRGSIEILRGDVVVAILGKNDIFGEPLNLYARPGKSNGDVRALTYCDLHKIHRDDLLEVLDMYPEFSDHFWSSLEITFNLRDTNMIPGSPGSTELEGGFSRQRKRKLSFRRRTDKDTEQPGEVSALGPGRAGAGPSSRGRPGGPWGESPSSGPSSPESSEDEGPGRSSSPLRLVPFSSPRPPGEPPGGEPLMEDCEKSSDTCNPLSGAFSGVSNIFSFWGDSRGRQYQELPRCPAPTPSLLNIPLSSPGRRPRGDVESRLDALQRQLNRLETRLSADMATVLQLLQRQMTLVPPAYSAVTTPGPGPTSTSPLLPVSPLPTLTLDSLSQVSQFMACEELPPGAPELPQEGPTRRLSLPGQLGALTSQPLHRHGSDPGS

For `OC[C@H]1O[C@@H]2O[C@H]3[C@H](O)[C@@H](O)[C@@H](O[C@H]4[C@H](O)[C@@H](O)[C@@H](O[C@H]5[C@H](O)[C@@H](O)[C@@H](O[C@H]6[C@H](O)[C@@H](O)[C@@H](O[C@H]7[C@H](O)[C@@H](O)[C@@H](O[C@H]8[C@H](O)[C@@H](O)[C@@H](O[C@H]1[C@H](O)[C@H]2O)O[C@@H]8CO)O[C@@H]7CO)O[C@@H]6CO)O[C@@H]5CO)O[C@@H]4CO)O[C@@H]3CO` [BETADEX], the IC50 entry (in data set [1]; in data set [2]; in data set [3]; in data set [4]; on Leukotriene C4 synthase; in data set [5]) was “Not Active” in each case. Also, the IC50 result (in data set [6]; on B2 bradykinin receptor) was “Not Active” throughout. Besides, the Ki result in data set [1], in data set [2] and in data set [5] was “Not Active” throughout.

Take `COc1cc([C@@H]2c3cc4c(cc3[C@H](O)[C@H]3COC(=O)[C@H]23)OCO4)cc(OC)c1OC` [PODOFILOX]: the IC50 entry (in data set [1]; in data set [2]; in data set [3]; in data set [4]; at Leukotriene C4 synthase; in data set [5]) was “Not Active” each time. Moreover, the IC50 entry (in data set [6]; at B2 bradykinin receptor) was “Not Active” each time. In addition, the Ki result in data set [1], in data set [2] and in data set [5] was “Not Active” in each case.

As for `C[C@H]1C[C@H]2[C@@H]3CCC4=CC(=O)C=C[C@]4(C)[C@@]3(F)[C@@H](O)C[C@]2(C)[C@@]1(O)C(=O)CO` [BETAMETHASONE], the IC50 result (in data set [1]; in data set [2]; in data set [3]; in data set [4]; against Leukotriene C4 synthase; in data set [5]) was “Not Active” in each case. The IC50 result (in data set [6]; against B2 bradykinin receptor) was “Not Active” throughout. The Ki result in data set [1], in data set [2] and in data set [5] was “Not Active” throughout.

Turning to CARBOXYMETHYLCELLULOSE, the IC50 entry (in data set [1]; in data set [2]; in data set [3]; in data set [4]; against Leukotriene C4 synthase; in data set [5]) was “Not Active” throughout. The half-inhibitory concentration (IC50) result (in data set [6]; against B2 bradykinin receptor) was “Not Active” each time. Also, the Ki result (in data set [1]; in data set [2]; in data set [3]; in data set [4]; on Leukotriene C4 synthase; in data set [5]) was “Not Active” throughout. Moreover, the inhibition constant Ki result (in data set [6]; on B2 bradykinin receptor) was “Not Active” in each case.

Consider `NC(=O)CN1CCCC1=O`, for which the IC50 result (in data set [1]; in data set [2]; in data set [3]; in data set [4]; at Leukotriene C4 synthase; in data set [5]) was “Not Active” throughout. The IC50 entry (in data set [6]; on B2 bradykinin receptor) was “Not Active” throughout. Further, the Ki entry in data set [1], in data set [2] and in data set [5] was “Not Active” each time.

For the compound `CC(N)Cc1c[nH]c2ccc(OCc3cccs3)cc12` (configuration not stated) [BW-723C86], the IC50 result was “Not Active” in data set [1]; 3.47 µM in data set [2] (read-out: IC50); “Not Active” in data set [3]; “Not Active” in data set [4]; “Not Active” against Leukotriene C4 synthase; “Not Active” in data set [5]. The IC50 result (in data set [6]; on B2 bradykinin receptor) was “Not Active” throughout. In addition, the inhibition constant (Ki) entry in data set [1] is “Not Active”; in data set [2] (read-out: Ki), 3.08 µM; in data set [5] it was “Not Active”.

For `CNC[C@H](O)c1ccc(O)c(O)c1` [EPINEPHRINE], the IC50 result (in data set [1]; in data set [2]; in data set [3]; in data set [4]; against Leukotriene C4 synthase; in data set [5]) was “Not Active” in each case. Also, the IC50 entry (in data set [6]; against B2 bradykinin receptor) was “Not Active” throughout. For the same compound, the Ki result in data set [1], in data set [2] and in data set [5] was “Not Active” in each case.

For `c1ccc2c(c1)Nc1ccccc1S2` [PHENOTHIAZINE], the IC50 entry (in data set [1]; in data set [2]; in data set [3]; in data set [4]; against Leukotriene C4 synthase; in data set [5]) was “Not Active” each time. Moreover, the IC50 entry (in data set [6]; against B2 bradykinin receptor) was “Not Active” each time. For the same compound, the Ki result in data set [1], in data set [2] and in data set [5] was “Not Active” throughout.

With `ClC1=C(Cl)[C@]2(Cl)[C@@H]3[C@@H]4C[C@@H]([C@H]5O[C@@H]45)[C@@H]3[C@@]1(Cl)C2(Cl)Cl` [DIELDRIN], the IC50 entry (in data set [1]; in data set [2]; in data set [3]; in data set [4]; against Leukotriene C4 synthase; in data set [5]) was “Not Active” throughout. Also, the IC50 entry (in data set [6]; against B2 bradykinin receptor) was “Not Active” each time. In addition, the Ki entry in data set [1], in data set [2] and in data set [5] was “Not Active” each time.

As for `CC(C)(c1ccc(O)cc1)c1ccc(O)cc1` [BISPHENOL A], the IC50 entry (in data set [1]; in data set [2]; in data set [3]; in data set [4]; against Leukotriene C4 synthase; in data set [5]) was “Not Active” each time. The IC50 entry (in data set [6]; against B2 bradykinin receptor) was “Not Active” in each case. The Ki entry in data set [1], in data set [2] and in data set [5] was “Not Active” each time.

Consider `CN(Cc1cc(Br)cc(Br)c1N)C1CCCCC1` [BROMHEXINE], for which the IC50 result (in data set [1]; in data set [2]; in data set [3]; in data set [4]; on Leukotriene C4 synthase; in data set [5]) was “Not Active” each time. The IC50 entry (in data set [6]; at B2 bradykinin receptor) was “Not Active” throughout. The Ki result in data set [1], in data set [2] and in data set [5] was “Not Active” throughout.

In the case of `c1ccc(Cn2ccnc2)cc1`, the IC50 entry (in data set [1]; in data set [2]; in data set [3]; in data set [4]; at Leukotriene C4 synthase; in data set [5]) was “Not Active” each time. In addition, the IC50 result (in data set [6]; against B2 bradykinin receptor) was “Not Active” throughout. Further, the Ki entry in data set [1], in data set [2] and in data set [5] was “Not Active” throughout.
